Where two headings read alike, the source gives them in different places.
Columns and labels:
[1] = test system: td intron (group I intron of the thymidylate synthase gene of phage T4, truncated version); format: biochemical; conditions: for IC50: read-out: concentration giving approximately 50% inhibition of the second splice step of the td intron; for ability to inhibit the group I intron splice reaction: antibiotics known to interact with 23S rRNA; for inhibition of group I splicing: at millimolar concentrations
Procedure: In vitro-transcribed and gel-purified^8 preRNA from a truncated version of the td intron^21 was incubated in a splicing buffer (50 mM Tris-HCl, pH 7.5, 5 mM MgCl2, 0.4 mM spermidine) for 10 min at 37° C. with GTP and gentamicin as indicated. Samples were separated on 5% acrylamide/7 M urea gels. RNA species are as follows: In-E2, intron-exon 2; L-ln, linear intron; E1-E2, ligated exons; E1, exon 1.
FIGS. 3a-c, Splicing experiments were done with the td intron as described in FIG. 2a, using several members of each family of aminoglycoside antibiotics (gentamicin, kanamycin and neomycin). Structures of the antibiotics can be found in Davies and Yagisaura in Biochemistry and Genetic Function Of Commercially Important Antibiotics, p. 329-354, Addison-Wesley, London, (1983) "Conc" is the antibiotic concentration at which about 50% inhibition was observed.
To monitor the splice process in vitro precursor RNA containing exon1, intron and exon2 was synthesized by in vitro transcription using bacteriophage RNA polymerase. During transcription, a radioactive labeled nucleotide was present in the nucleotide mixture and was incorporated in the RNA. This radioactive labeled RNA was then subjected to splicing conditions and after reaction the RNA splice products were separated from each other by electrophoresis on a denaturing acrylamide gel. The gel was dried and exposed for autoradiography.
Unspliced precursor RNA from the thymidylate synthase gene of the phage T4, which had been transcribed in vitro, and purified as previously described, (Schroeder, R., von Ahsen, U. & Belfort, M. Biochemistry 30, 3295-3303 (1991)) was incubated with increasing amounts of gentamicin under normal splicing conditions.
(§1) Materials and Methods: In vitro splicing experiments were performed with a truncated version of the td gene, containing 79 nt of exon I, 265 nt of intron sequences containing only the catalytic core (delta P6-2) and 21 nt of exon H (Schroeder, von Ahsen, & Belfort, 199 1, Biochemistry 30, 3295). The plasmids containing the Tetrahymena rRNA intron and the yeast mitochondrial cob intron I (the group II intron) were pBGST7 (Been & Cech, 1986, Cell 47, 207) and pBSbIl (Schmelzer and Schweyen, 1986, Cell 46, 557), respectively. The sunY intron is described in Michel et al. (1990, Genes & Development 4, 777). DNA was prepared by the alkaline-lysis procedure and linearized with appropriate restriction enzymes. Transcription was performed in a total volume of 20 μl at 30° C. for one (1) hour in buffer containing 40 mM Tris-HCl pH 7.5, 3 mM MgCl2, 0.4 mM spermidine, 1 mM of each NTP, 5 mM […], 10 units T7 RNA polymerase (Boehringer Mannheim), 10 μCi alpha-^35 S-CTP and 10 units RNAse inhibitor (Boehringer Mannheim). The reaction mixture was loaded on a 5% polyacrylamide/7 M urea gel. Precursor RNA was cut out of the gel and soaked in 400 μl elution buffer (10 mM Tris-HCl pH 7.5, 10 mM EDTA, 3.5 M NH4 OAc, 0.1% SDS) for two hours. After ethanol precipitation, the RNA was dissolved in H2 O-- before splicing experiments were performed the RNA was incubated in splicing buffer (40 mM Tris-HCl pH 7.5, 8 mM MgCl2, 0.4 mM spermidine) for 2 min at 56° C. For splicing of the suny intron and the Tetrahymena intron 50 mM NH4 Cl or 200 mM NaCl were added, respectively. Splicing was initiated by addition of guanosine at the appropriate concentration at 37° C. When splicing was to be inhibited by antibiotic, the antibiotic was added immediately before the guanosine. Splicing reactions were performed at 37° C. for 10'.

[2] = test system: sunY intron (shortened version, construct SYC1.3); assay: In vitro splicing inhibition of the sunY group I intron (GTP incorporation assay); format: biochemical, T4-phage
Procedure: as §1, with “DNA” for “Materials and Methods: In vitro splicing experiments were performed with a truncated version of the td gene, containing 79 nt of exon I, 265 nt of intron sequences containing only the catalytic core (delta P6-2) and 21 nt of exon H (Schroeder, von Ahsen, & Belfort, 199 1, Biochemistry 30, 3295). The plasmids containing the Tetrahymena rRNA intron and the yeast mitochondrial cob intron I (the group II intron) were pBGST7 (Been & Cech, 1986, Cell 47, 207) and pBSbIl (Schmelzer and Schweyen, 1986, Cell 46, 557), respectively. The sunY intron is described in Michel et al. (1990, Genes & Development 4, 777). DNA”, “10'. […] Samples were separated on 5% acrylamide/7 M urea gels.” for “10'.”

[3] = in vitro splicing, 37° C., 10 min

Compound	IC50 [1, 3] [µM]	also measured
2"-phospho-Gentamicin C	~100	–
CN[C@@H]1[C@@H](O)[C@@H](O[C@@H]2[C@@H](O)[C@H](O[C@H]3OC(CN)=CC[C@H]3N)[C@@H](N)C[C@H]2NC(C)=O)OC[C@]1(C)O [1-N-acetyl-Sisomicin]	~100	–
CN[C@@H]1[C@@H](O)[C@@H](O[C@@H]2[C@H](O)[C@H](O[C@H]3OC(CN)=CC[C@H]3N)[C@@H](N)C[C@H]2N)OC[C@]1(C)O [5-epi-Sisomicin]	~0.5	–
CN[C@@H]1[C@@H](O[C@H]2O[C@H](CO)[C@@H](N)[C@H](O)[C@H]2O)OC2C[C@@H](N)[C@@H](O[C@H]3[C@H](O)[C@@H](O)[C@H](N)C[C@@H]3N)OC2[C@@H]1O (some centres unmarked) [Apramycin]	~200	–
CNC1C(O)C(OC2C(N)CC(N)C(OC3OC(CN)CCC3N)C2O)OCC1(C)O (centres unmarked) [Dihydrosisomicin]	~100	–
CN[C@@H]1[C@@H](O)[C@@H](O[C@@H]2[C@@H](O)[C@H](O)[C@@H](N)C[C@H]2N)OC[C@]1(C)O [Garamine]	~200	–
CN[C@@H]1[C@@H](O)[C@@H](O[C@@H]2[C@@H](O)[C@H](O[C@H]3O[C@H](CN)[C@@H](O)[C@H](O)[C@H]3O)[C@@H](N)C[C@H]2N)OC[C@]1(C)O [Gentamicin B]	~10	–
NC[C@H]1O[C@H](O[C@H]2[C@H](O)[C@@H](O[C@H]3O[C@H](CO)[C@@H](O)[C@H](N)[C@H]3O)[C@H](N)C[C@@H]2N)[C@H](N)[C@@H](O)[C@@H]1O [Kanamycin B]	~10	–
NC[C@@H]1O[C@H](O[C@H]2[C@@H](O)[C@H](O[C@@H]3[C@@H](O)[C@H](N)C[C@H](N)[C@H]3O[C@H]3O[C@H](CO)[C@@H](O)C[C@H]3N)O[C@@H]2CO)[C@H](N)[C@@H](O)[C@@H]1O[C@H]1O[C@H](CO)[C@@H](O)[C@H](O)[C@@H]1O [Lividomycin]	~500	–
NC[C@H]1O[C@H](O[C@H]2[C@H](O)[C@@H](O)[C@H](N)C[C@@H]2N)[C@H](N)[C@@H](O)[C@@H]1O [Neamine]	~200	–
NC[C@@H]1O[C@H](O[C@H]2[C@@H](O)[C@H](O[C@@H]3[C@@H](O)[C@H](N)C[C@H](N)[C@H]3O[C@H]3O[C@H](CN)[C@@H](O)[C@H](O)[C@H]3N)O[C@@H]2CO)[C@H](N)[C@@H](O)[C@@H]1O [Neomycin B]	~0.5	concentration to which the sunY intron is sensitive [2]: 10 AM; lowest concentration with splicing inhibition activity ([1]; activity at a concentration as low as): 0.5 µM; antibiotic concentration affecting the first step of splicing ([1]; first step affected only at this concentration): 100 µM
NC[C@@H]1O[C@H](O[C@H]2[C@@H](O)[C@H](O[C@@H]3[C@@H](O)[C@H](N)C[C@H](N)[C@H]3O[C@H]3O[C@H](CO)[C@@H](O)[C@H](O)[C@H]3N)O[C@@H]2CO)[C@H](N)[C@@H](O)[C@@H]1O [Paromomycin]	~100	–
CN[C@@H]1[C@@H](O)[C@@H](O[C@@H]2[C@@H](O)[C@H](O[C@H]3OC(CN)=CC[C@H]3N)[C@@H](N)C[C@H]2N)OC[C@]1(C)O [Sisomicin]	~50	–
O=C(N[C@H](CO)[C@H](O)c1ccc([N+](=O)[O-])cc1)C(Cl)Cl [chloramphenicol]	–	ability to inhibit the group I intron splice reaction [1]: not able to inhibit; inhibition of group I splicing [1]: inactive
CC[C@H]1OC(=O)[C@H](C)[C@@H](O[C@H]2C[C@@](C)(OC)[C@@H](O)[C@H](C)O2)[C@H](C)[C@@H](O[C@@H]2O[C@H](C)C[C@H](N(C)C)[C@H]2O)[C@](C)(O)C[C@@H](C)C(=O)[C@H](C)[C@@H](O)[C@]1(C)O [erythromycin]	–	ability to inhibit the group I intron splice reaction [1]: not able to inhibit; inhibition of group I splicing [1]: inactive
CN[C@H]1C[C@@H](N)[C@H](O)[C@@H](O[C@@H]2O[C@H](CO)[C@H](O)[C@@H]3OC4(O[C@H]23)O[C@H]([C@@H](N)CO)[C@H](O)[C@H](O)[C@H]4O)[C@@H]1O (some centres unmarked) [hygromycin B]	–	inhibition of group I splicing [1]: inactive
C[C@H]1O[C@H](O[C@H]2[C@H](O)[C@@H](O)[C@@H](O)[C@H](O)[C@@H]2O)[C@@H](N)C[C@@H]1NC(=N)C(=O)O [kasugamycin]	–	inhibition of group I splicing [1]: inactive
CN[C@@H]1[C@H](O)[C@H](NC)[C@H]2O[C@@]3(O)C(=O)C[C@@H](C)O[C@H]3O[C@@H]2[C@H]1O [spectinomycin]	–	inhibition of group I splicing [1]: inactive
C=C[C@]1(C)C[C@@H](OC(=O)CSCCN(CC)CC)[C@]2(C)[C@H](C)CC[C@]3(CCC(=O)[C@H]32)[C@@H](C)[C@@H]1O [tiamulin]	–	ability to inhibit the group I intron splice reaction [1]: not able to inhibit
Gentamicin C	–	IC50 [1]: ~1 µM
noursethricin	–	ability to inhibit the group I intron splice reaction [1]: not able to inhibit
